Where a SMILES comes first, the peptide text is derived from it.
Tests used:
[1] = tested on: Escherichia coli MCR-1 Af 45; conditions: Mueller-Hinton broth II, no visible growth after 18-20 hours at 35° C.
Experimental: (§1) Lyophilized peptides were weighed on a Microbalance (Mettler MT5) and dissolved in sterile water to a final concentration of 1 mg/mL. Stock solutions were kept at +4° C., light protected.
(§2) Colonies of the microorganisms were diluted in saline (0.85%, NaCl) and adjusted using a McFarland reader (bioMérieux SA, Marcy-l'Etoile, France) to 0.5 McFarland standard. Subsequently, the bacterial suspension was diluted in Mueller-Hinton II (MHII, cation adjusted) broth to give approximately 5×10^5 colony forming units (CFU/mL).
(§3) 10^6 colony forming units (CFU)/mL. Aliquots (90 μl) of inoculate were added to 10 μl of water+P-80 (Polysorbate 80, 0.002% final concentration) containing the peptide in serial two-fold dilutions at 10 fold final concentration. The following microorganisms were used to determine antibiotic selectivity of the peptides: Escherichia coli ATCC 25922, Escherichia coli MCR-1 Af 45 and Klebsiella pneumoniae SSI3010.

[2] = tested on: Escherichia coli ATCC 25922; conditions: ATCC 25922
Experimental: as §1, §2, §3

[3] = tested on: Klebsiella pneumoniae SSI3010; conditions: SSI3010
Experimental: as §1, §2, §3

[4] = tested on: human red blood cells (hRBC); format: cell-based; conditions: red cells of human, 1 h, 0.2 g/L
Experimental: as §1
The peptides were tested for their hemolytic activity against human red blood cells (hRBC). Fresh hRBC were washed three times with phosphate buffered saline (PBS) and centrifuged for 5 min at 3000×g. Compounds (200 μg/mL) were incubated with 20% hRBC (v/v) for 1 h at 37° C. and shaking at 300 rpm. A value of 0% and 100% cell lyses, respectively, was determined by incubation of hRBC in the presence of PBS and 2.5% Triton X-100 in H2O, respectively. The samples were centrifuged, the supernatants were 8-fold diluted in PBS buffer and the optical densities (OD) were measured at 540 nm. The 100% lyses value (OD540H2O) gave an OD540 of approximately 0.5-1.0.
Percent hemolysis was calculated as follows: (OD540peptide/OD540H2O)×100%.

| SMILES | Escherichia coli MCR-1 Af 45 MIC [1] | Escherichia coli ATCC 25922 MIC [2] | Klebsiella pneumoniae SSI3010 MIC [3] | Hemolysis at 0.2 g/L [4] |
| --- | --- | --- | --- | --- |
| CC[C@H](C)[C@H](NC(=O)[C@@H](NC(=O)[C@@H]1C[C@@H](O)CN1C(=O)[C@@H](N)C(C)C)[C@@H](C)CC)C(=O)N[C@@H](Cc1ccc(O)cc1)C(=O)N[C@@H]1C(=O)N[C@@H](CC(N)=O)C(=O)N[C@@H](CCCNC(=N)N)C(=O)N[C@@H](CCN)C(=O)N[C@@H](CO)C(=O)N[C@H](CCN)C(=O)N[C@@H](CCCCN)C(=O)N[C@H](C(=O)N[C@@H](CCN)C(=O)N[C@@H](CCN)C(=O)N[C@@H](Cc2ccc(O)cc2)C(=O)O)CSSC1(C)C [Example 76, Val-Hyp-Ile-Ile-Tyr-Pen-Asn-Arg-Dab-Ser-^DDab-Lys-Cys-Dab-Dab-Tyr] (HELM PEPTIDE1{V.[Hyp].I.I.Y.[Pen].N.R.[Dab].S.[NCC[C@@H](N[*:1])C(=O)[*:2]].K.C.[Dab].[Dab].Y}$PEPTIDE1,PEPTIDE1,6:R3-13:R3$$$V2.0) | 0.0625 µg/mL | 0.0625 µg/mL | 0.25 µg/mL | <1% |
| CC[C@H](C)[C@H](NC(=O)[C@@H]1C[C@@H](O)CN1C(=O)[C@@H](N)C(C)C)C(=O)N[C@H](C(=O)N[C@@H](Cc1ccc(O)cc1)C(=O)N[C@@H]1C(=O)N[C@@H](CC(N)=O)C(=O)N[C@@H](CCCNC(=N)N)C(=O)N[C@@H](CCN)C(=O)N[C@@H](CO)C(=O)N[C@H](CCN)C(=O)N[C@@H](CCCCN)C(=O)N[C@H](C(=O)N[C@@H](CCN)C(=O)N[C@@H](CCN)C(=O)N[C@@H](Cc2ccc(O)cc2)C(=O)O)CSSC1(C)C)[C@@H](C)O [Example 77, Val-Hyp-Ile-Thr-Tyr-Pen-Asn-Arg-Dab-Ser-^DDab-Lys-Cys-Dab-Dab-Tyr] (HELM PEPTIDE1{V.[Hyp].I.T.Y.[Pen].N.R.[Dab].S.[NCC[C@@H](N[*:1])C(=O)[*:2]].K.C.[Dab].[Dab].Y}$PEPTIDE1,PEPTIDE1,6:R3-13:R3$$$V2.0) | 0.0625 µg/mL | 0.0625 µg/mL | 0.125 µg/mL | <1% |
| CC[C@H](C)[C@H](NC(=O)[C@@H](NC(=O)[C@@H]1C[C@@H](O)CN1C(=O)[C@@H](N)C(C)C)[C@@H](C)CC)C(=O)N[C@@H](Cc1ccc(O)cc1)C(=O)N[C@@H]1C(=O)N[C@@H](CC(N)=O)C(=O)N[C@@H](CCCNC(=N)N)C(=O)N[C@@H](CCN)C(=O)N[C@@H]([C@@H](C)O)C(=O)N[C@H](CCN)C(=O)N[C@@H](CCCN)C(=O)N[C@H](C(=O)N[C@@H](CCN)C(=O)N[C@@H](CCCNC(=N)N)C(=O)N[C@@H](Cc2ccc(O)cc2)C(=O)O)CSSC1(C)C [Example 78, Val-Hyp-Ile-Ile-Tyr-Pen-Asn-Arg-Dab-Thr-^DDab-Orn-Cys-Dab-Arg-Tyr] (HELM PEPTIDE1{V.[Hyp].I.I.Y.[Pen].N.R.[Dab].T.[NCC[C@@H](N[*:1])C(=O)[*:2]].[Orn].C.[Dab].R.Y}$PEPTIDE1,PEPTIDE1,6:R3-13:R3$$$V2.0) | 0.0625 µg/mL | 0.0625 µg/mL | 0.125 µg/mL | <1% |
| CC[C@H](N)C(=O)N1C[C@H](O)C[C@H]1C(=O)N[C@H](C(=O)N[C@H](C(=O)N[C@@H](Cc1ccc(O)cc1)C(=O)N[C@@H]1C(=O)N[C@@H](CC(N)=O)C(=O)N[C@@H](CCCNC(=N)N)C(=O)N[C@@H](CCN)C(=O)N[C@@H]([C@@H](C)O)C(=O)N[C@H](CCN)C(=O)N[C@@H](CCCCN)C(=O)N[C@H](C(=O)N[C@@H](CCN)C(=O)N[C@@H](CCCNC(=N)N)C(=O)N[C@@H](Cc2ccc(O)cc2)C(=O)O)CSSC1(C)C)[C@@H](C)CC)[C@@H](C)CC [Example 79, Abu-Hyp-Ile-Ile-Tyr-Pen-Asn-Arg-Dab-Thr-^DDab-Lys-Cys-Dab-Arg-Tyr] (HELM PEPTIDE1{[Abu].[Hyp].I.I.Y.[Pen].N.R.[Dab].T.[NCC[C@@H](N[*:1])C(=O)[*:2]].K.C.[Dab].R.Y}$PEPTIDE1,PEPTIDE1,6:R3-13:R3$$$V2.0) | 0.125 µg/mL | 0.125 µg/mL | 0.5 µg/mL | <1% |

Source: patent US20240228555A9, “ANTIMICROBIAL PEPTIDOMIMETICS” (Basilea Pharmaceutica International AG, Allschwil, priority 2020, published 2024)
